Assay results: paper PMC12257397, “Scaffold Hopping Strategy toward New 4‑Aminoquinazolines Active Against Extracellular and Intracellular Mycobacterium tuberculosis” (ACS Medicinal Chemistry Letters, 2025)
pIC50: −log10 of the molar value. Converted amounts (≈) assume the structure as drawn. Where two headings read alike, the source gives them in different places.

Columns and labels:
[1] = system: M. tuberculosis H37Rv (ATCC 27294); test: MIC by resazurin reduction microplate assay (REMA); assay type: cell-based; settings: Mycobacterium tuberculosis, converted from μg/mL to μM
in vitro [2] = settings: human
[3] = system: M. tuberculosis H37Rv-LP (ATCC 25618); test: microbe, parasite or virus in culture; assay type: cell-based; settings: concentration inhibiting 90% of growth, 5 days, read-out: MIC parental wild-type strain H37Rv-LP
in vitro [4] = settings: human; remark: listed apart in the source
in vitro [5] = settings: human; remark: listed apart in the source
Escherichia coli RFM 795 = test: Antimicrobial spectrum MIC, E. coli; assay type: cell-based; settings: Escherichia coli RFM 795 (lptD mutation)
[6] = system: Mycobacterium avium 2285R (rough); test: Antimicrobial spectrum MIC, M. avium rough; assay type: cell-based
[7] = system: Mycobacterium smegmatis mc2155; assay type: cell-based
[8] = system: Mycobacterium avium 2285S (smooth); test: Antimicrobial spectrum MIC, M. avium smooth; assay type: cell-based
[9] = system: Mycobacterium abscessus 103R; test: Antimicrobial spectrum MIC, M. abscessus; assay type: cell-based
[10] = Microsomal stability, human liver microsomes (HLM); assay type: in vitro ADME; settings: both sexes, pH 7.4
Description: (§1) 1.5. Microsomal stability
(§2) Test compound (6 μM) was incubated at 37 °C with male BALB/c mouse liver microsomes or mixed gender human liver microsomes (Xenotech LLC; 0.5 mg /mL, […] potassium phosphate buﬀer, pH 7.4) and the reaclon started with addilon of excess NADPH (2 mM, pH 7.4). Samples (35 µL) were removed at lme 0, 5, 10, 20, 30, and 60 min and mixed with 35 µL of acetonitrile, methanol, wate r s o l u lon (2:1:1) containing […] internal standard terfenadine and 0.05% v/v acelc acid. The samples were centrifuged at 4000 rpm for 10 min and the supernatant was analyzed using a 1100 HPLC and Single Quad 6120 (Agilent, USA). Compounds were tested in duplic ate, and an exponenlal decay curve ﬁt was used on the ralo of peak area of test compound to internal standard at each lme point to calculate the rate constant (k). The rate of intrinsic clearance (CLint) of each test compound was then calculated using the following equalon: CLint (mL/min/mg) = k x V where V was mL/mg protein. Verapamil (6 μM) was used as a posilve control. Incubalon of each compound with microsomes in the absence of NADPH and analyzed at 0 and 60 min was used as the negalve control.
(§3) The human biological samples were sourced ethically, and their research use was in accord with the terms of the informed consents.

[11] = Microsomal stability, mouse liver microsomes (MLM); assay type: in vitro ADME; settings: male, BALB/c, pH 7.4
Description: as §1, §2, §3

[12] = system: Staphylococcus aureus (ATCC 29213); test: Antimicrobial spectrum MIC, S. aureus; assay type: cell-based
[13] = system: H37Rv-LP (ATCC 25618) inside THP-1 cells; test: microbe, parasite or virus in culture; assay type: cell-based; settings: Mycobacterium tuberculosis, 72 hours
[14] = Mycobacterium tuberculosis, 120 h

## Cc1nc(NCCc2ccc(S(N)(=O)=O)cc2)c2cc(Br)ccc2n1 [14c]
[1]
  MIC: > 94.9 µM

## Cc1nc(NCCc2ccc(S(N)(=O)=O)cc2)c2cc(I)ccc2n1 [14d]
[1]
  MIC: > 85.4 µM

## NS(=O)(=O)c1ccc(CCNc2ncnc3ccccc23)cc1 [14e]
[1]
  MIC: > 122 µM

## Cc1ccc(CCNc2nc(C)nc3ccccc23)cc1 [15a]
[1]
  MIC: 18 µM (≈ 4.99 µg/mL)

## COc1ccc2nc(C)nc(NCCc3ccc(C)cc3)c2c1 [15b]
[1]
  MIC: 16.3 µM (≈ 5.01 µg/mL)

## Cc1ccc(CCNc2nc(C)nc3ccc(Br)cc23)cc1 [15c]
[1]
  MIC: 7 µM (≈ 2.49 µg/mL)

## Cc1ccc(CCNc2nc(C)nc3ccc(I)cc23)cc1 [15d]
In vitro [2]; CC50 HepG2+Gal
  CC50 at 72 h: 6.6 µM
In vitro [2]; CC50 HepG2+Glu
  CC50 at 72 h: 11.4 µM
[3]; [14]
  MIC: 0.48 µM (≈ 0.194 µg/mL)
In vitro [4]
  CC50 at 72 h: 10.6 µM
[1]
  MIC: 3.1 µM (≈ 1.25 µg/mL)
In vitro [5]
  CC50 at 72 h: 10.2 µM

## Cc1ccc(CCNc2ncnc3ccccc23)cc1 [15e]
[1]
  MIC: > 38 µM

## CCc1ccc(CCNc2nc(C)nc3ccccc23)cc1 [16a]
[1]
  MIC: 17.2 µM (≈ 5.01 µg/mL)

## CCc1ccc(CCNc2nc(C)nc3ccc(OC)cc23)cc1 [16b]
[1]
  MIC: 15.6 µM (≈ 5.01 µg/mL)

## CCc1ccc(CCNc2nc(C)nc3ccc(Br)cc23)cc1 [16c]
In vitro [2]; CC50 HepG2+Gal
  CC50 at 72 h: 1.6 µM
In vitro [2]; CC50 HepG2+Glu
  CC50 at 72 h: 4 µM
[3]; [14]
  MIC: 2 µM (≈ 0.741 µg/mL)
[3]
  MIC: 2.0 µM (≈ 0.741 µg/mL)
[1]
  MIC: 6.8 µM (≈ 2.52 µg/mL)

## CCc1ccc(CCNc2nc(C)nc3ccc(I)cc23)cc1 [16d]
In vitro [2]; CC50 HepG2+Gal
  CC50 at 72 h: 5.3 µM
In vitro [2]; CC50 HepG2+Glu
  CC50 at 72 h: 7.4 µM
[3]; [14]
  MIC: 1.9 µM (≈ 0.793 µg/mL)
In vitro [4]
  CC50 at 72 h: 8.3 µM
[1]
  MIC: 6 µM (≈ 2.5 µg/mL)
In vitro [5]
  CC50 at 72 h: 8.3 µM

## CCc1ccc(CCNc2ncnc3ccccc23)cc1 [16e]
[1]
  MIC: 36 µM (≈ 9.99 µg/mL)

## Cc1nc(NCCc2ccc3ccccc3c2)c2ccccc2n1 [17a]
[1]
  MIC: 8 µM (≈ 2.51 µg/mL)

## COc1ccc2nc(C)nc(NCCc3ccc4ccccc4c3)c2c1 [17b]
[1]
  MIC: 7.3 µM (≈ 2.51 µg/mL)

## Cc1nc(NCCc2ccc3ccccc3c2)c2cc(Br)ccc2n1 [17c]
In vitro [2]; CC50 HepG2+Gal
  CC50 at 72 h: 1.8 µM
In vitro [2]; CC50 HepG2+Glu
  CC50 at 72 h: 4.6 µM
[3]; [14]
  MIC: 2.5 µM (≈ 0.981 µg/mL)
In vitro [4]
  CC50 at 72 h: < 1 µM
[1]
  MIC: 3.2 µM (≈ 1.26 µg/mL)
In vitro [5]
  CC50 at 72 h: < 1 µM

## Cc1nc(NCCc2ccc3ccccc3c2)c2cc(I)ccc2n1 [17d]
In vitro [2]; CC50 HepG2+Gal
  CC50 at 72 h: 5.2 µM
In vitro [2]; CC50 HepG2+Glu
  CC50 at 72 h: 7.1 µM
[3]; [14]
  MIC: 1.4 µM (≈ 0.615 µg/mL)
[1]
  MIC: 1.4 µM (≈ 0.615 µg/mL)

## c1ccc2cc(CCNc3ncnc4ccccc34)ccc2c1 [17e]
[1]
  MIC: > 16.7 µM

## Cc1nc(NCCCc2ccccc2)c2ccccc2n1 [18a]
In vitro [2]; CC50 HepG2+Gal
  CC50 at 72 h: 2.6 µM
In vitro [2]; CC50 HepG2+Glu
  CC50 at 72 h: 7.7 µM
[3]; [14]
  MIC: 1.6 µM (≈ 0.444 µg/mL)
[3]
  MIC: 1.6 µM (≈ 0.444 µg/mL)
[1]
  MIC: 4.5 µM (≈ 1.25 µg/mL)

## COc1ccc2nc(C)nc(NCCCc3ccccc3)c2c1 [18b]
Escherichia coli RFM 795
  CIM RFM 795: 54 µM
[6]
  CIM 2285R: > 100 µM
In vitro [2]; CC50 HepG2+Gal
  CC50 at 72 h: 11 µM
In vitro [2]; CC50 HepG2+Glu
  CC50 at 72 h: 13.9 µM
[7]
  CIM mc2155: > 32.5 µM
[8]
  CIM 2285S: > 100 µM
[9]
  CIM 103R: > 100 µM
[10]; human, microsomes
  microsomal CLint at 6 μM: 252 µL/min/mg
  remaining at 20 min, 6 μM: 8%
[10]; human liver microsomes, read-out: HLM t1/2
  half-life at 6 μM: 5.5 min
[11]; mouse, microsomes
  microsomal CLint at 6 μM: 530 µL/min/mg
  remaining at 10 min, 6 μM: 7%
[11]; mouse liver microsomes, read-out: MLM t1/2
  half-life at 6 μM: 2.6 min
[3]; [14]
  MIC: 1.5 µM (≈ 0.461 µg/mL)
[12]
  CIM 29213: > 100 µM
In vitro [4]
  CC50 at 72 h: 17 µM
[1]
  MIC: 4.1 µM (≈ 1.26 µg/mL)
In vitro [5]
  CC50 at 72 h: > 20 µM
[13]; growth of H37Rv-LP inside THP-1 cells inhibited by 50%, read-out: Intracellular IC50
  pIC50: 6.08
[13]; growth of H37Rv-LP inside THP-1 cells inhibited by 90%, read-out: Intracellular IC90
  IC90: 1.9 µM

## c1ccc(CCCNc2ncnc3ccccc23)cc1 [18e]
In vitro [2]; CC50 HepG2+Gal
  CC50 at 72 h: 2.5 µM
In vitro [2]; CC50 HepG2+Glu
  CC50 at 72 h: 10.9 µM
[3]; [14]
  MIC: 24 µM (≈ 6.32 µg/mL)
In vitro [4]
  CC50 at 72 h: < 1 µM
[1]
  MIC: 19 µM (≈ 5 µg/mL)
In vitro [5]
  CC50 at 72 h: < 1 µM

## NNC(=O)c1ccncc1 [19 (INH), isoniazid, reference compound]
[1]
  MIC: 2.3 µM (≈ 0.315 µg/mL)

## CO[C@H]1/C=C/O[C@@]2(C)Oc3c(C)c(O)c4c(O)c(c(/C=N/N5CCN(C)CC5)c(O)c4c3C2=O)NC(=O)/C(C)=C\C=C\[C@H](C)[C@H](O)[C@@H](C)[C@@H](O)[C@@H](C)[C@H](OC(C)=O)[C@@H]1C [20 (RIF), rifampicin, reference compound]
[7]
  CIM mc2155: 48.6 µM
[3]; [14]
  MIC: 0.03 µM (≈ 0.0247 µg/mL)

## CN[C@@H]1C[C@H]2O[C@@](C)([C@@H]1OC)n1c3ccccc3c3c4c(c5c6ccccc6n2c5c31)C(=O)NC4 [21 (STA), staurosporine, reference compound]
In vitro [2]; CC50 HepG2+Gal
  CC50: 0.04 µM
In vitro [2]; CC50 HepG2+Glu
  CC50: 0.03 µM

## CC[C@H]1OC(=O)[C@H](C)[C@@H](O[C@H]2C[C@@](C)(OC)[C@@H](O)[C@H](C)O2)[C@H](C)[C@@H](O[C@@H]2O[C@H](C)C[C@H](N(C)C)[C@H]2O)[C@](C)(OC)C[C@@H](C)C(=O)[C@H](C)[C@@H](O)[C@]1(C)O [25 (CLA), Clarithromycin, reference compound]
[6]
  CIM 2285R: 1.4 µM
[8]
  CIM 2285S: 0.4 µM
[9]
  CIM 103R: 0.5 µM

## CN[C@H](CC(C)C)C(=O)N[C@H]1C(=O)N[C@@H](CC(N)=O)C(=O)N[C@H]2C(=O)N[C@H]3C(=O)N[C@H](C(=O)N[C@H](C(=O)O)c4cc(O)cc(O)c4-c4cc3ccc4O)[C@H](O)c3ccc(c(Cl)c3)Oc3cc2cc(c3O[C@@H]2O[C@H](CO)[C@@H](O)[C@H](O)[C@H]2O[C@H]2C[C@](C)(N)[C@H](O)[C@H](C)O2)Oc2ccc(cc2Cl)[C@H]1O [26 (VAN), Vancomycin, reference compound]
[12]
  CIM 29213: 2.9 µM

## CC1(C)S[C@@H]2[C@H](NC(=O)[C@H](N)c3ccccc3)C(=O)N2[C@H]1C(=O)O [27 (AMP), Ampicillin, reference compound]
Escherichia coli RFM 795
  CIM RFM 795: 12.0 µM
